Holding throughout (test): Kinase panel
What all share (assay type): biochemical

For experiment [1], the target named is T1, CK2α2(h) (Homo sapiens, UniProt P19784).
T1 construct: purchased Millipore KinaseProfiler

For experiment [2], the target named is T2, c-RAF(h) (Homo sapiens, UniProt P04049).
T2 construct: purchased Millipore KinaseProfiler

Experiment [3] has as its target T3, Flt3(D835Y)(h) (Homo sapiens, UniProt P36888, D835Y).
T3 construct: purchased Millipore KinaseProfiler
T3 sequence (P36888 27-993 D835Y): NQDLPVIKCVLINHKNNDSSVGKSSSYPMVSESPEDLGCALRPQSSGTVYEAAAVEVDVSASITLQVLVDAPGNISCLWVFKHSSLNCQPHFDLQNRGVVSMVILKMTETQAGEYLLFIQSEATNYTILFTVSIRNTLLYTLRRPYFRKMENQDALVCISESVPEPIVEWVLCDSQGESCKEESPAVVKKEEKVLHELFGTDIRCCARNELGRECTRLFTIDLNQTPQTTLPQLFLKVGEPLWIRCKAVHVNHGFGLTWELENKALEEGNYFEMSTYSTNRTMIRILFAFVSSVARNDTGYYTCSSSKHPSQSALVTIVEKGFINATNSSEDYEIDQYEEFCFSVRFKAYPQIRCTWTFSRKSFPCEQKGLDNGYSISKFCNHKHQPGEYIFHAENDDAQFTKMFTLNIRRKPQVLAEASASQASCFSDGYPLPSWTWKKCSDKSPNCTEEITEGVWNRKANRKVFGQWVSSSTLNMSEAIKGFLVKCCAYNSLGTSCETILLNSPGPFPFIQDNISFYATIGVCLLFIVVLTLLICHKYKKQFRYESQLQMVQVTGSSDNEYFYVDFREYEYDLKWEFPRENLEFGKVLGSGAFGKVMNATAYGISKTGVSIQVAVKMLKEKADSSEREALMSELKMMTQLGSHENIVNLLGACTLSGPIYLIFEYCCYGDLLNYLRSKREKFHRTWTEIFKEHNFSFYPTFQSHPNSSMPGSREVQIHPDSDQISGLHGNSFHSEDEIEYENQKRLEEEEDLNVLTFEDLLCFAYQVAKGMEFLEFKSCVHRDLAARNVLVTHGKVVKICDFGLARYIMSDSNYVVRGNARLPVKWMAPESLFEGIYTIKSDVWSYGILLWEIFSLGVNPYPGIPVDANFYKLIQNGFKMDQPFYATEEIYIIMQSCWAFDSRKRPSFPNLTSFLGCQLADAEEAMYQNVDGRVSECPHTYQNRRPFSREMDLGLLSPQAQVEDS

The target in experiment [4] is T4, Flt3(h) (Homo sapiens, UniProt P36888).
T4 construct: purchased Millipore KinaseProfiler
T4 sequence (P36888 27-993): T3 sequence (P36888 27-993 D835Y) with Y809D

Experiment [5] has as its target T5, LOK(h) (Homo sapiens, UniProt O94804).
T5 construct: purchased Millipore KinaseProfiler

The target of experiment [6] is T6, SGK2(h) (Homo sapiens, UniProt Q9HBY8).
T6 construct: purchased Millipore KinaseProfiler
T6 sequence (Q9HBY8 1-367): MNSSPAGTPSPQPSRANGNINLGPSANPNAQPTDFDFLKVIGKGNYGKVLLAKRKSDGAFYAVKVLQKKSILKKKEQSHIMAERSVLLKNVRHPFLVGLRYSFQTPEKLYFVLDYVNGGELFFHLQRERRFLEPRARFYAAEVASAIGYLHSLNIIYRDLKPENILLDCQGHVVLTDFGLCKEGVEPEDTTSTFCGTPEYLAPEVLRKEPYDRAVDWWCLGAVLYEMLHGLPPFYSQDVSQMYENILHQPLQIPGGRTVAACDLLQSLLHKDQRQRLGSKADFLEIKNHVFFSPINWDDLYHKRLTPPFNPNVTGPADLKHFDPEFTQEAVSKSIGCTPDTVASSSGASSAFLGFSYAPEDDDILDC

Structures are written as SMILES. Residue numbers refer to the chain shown, from its start. Where two headings read alike, the source gives them in different places.

T5 sequence (O94804 whole entry): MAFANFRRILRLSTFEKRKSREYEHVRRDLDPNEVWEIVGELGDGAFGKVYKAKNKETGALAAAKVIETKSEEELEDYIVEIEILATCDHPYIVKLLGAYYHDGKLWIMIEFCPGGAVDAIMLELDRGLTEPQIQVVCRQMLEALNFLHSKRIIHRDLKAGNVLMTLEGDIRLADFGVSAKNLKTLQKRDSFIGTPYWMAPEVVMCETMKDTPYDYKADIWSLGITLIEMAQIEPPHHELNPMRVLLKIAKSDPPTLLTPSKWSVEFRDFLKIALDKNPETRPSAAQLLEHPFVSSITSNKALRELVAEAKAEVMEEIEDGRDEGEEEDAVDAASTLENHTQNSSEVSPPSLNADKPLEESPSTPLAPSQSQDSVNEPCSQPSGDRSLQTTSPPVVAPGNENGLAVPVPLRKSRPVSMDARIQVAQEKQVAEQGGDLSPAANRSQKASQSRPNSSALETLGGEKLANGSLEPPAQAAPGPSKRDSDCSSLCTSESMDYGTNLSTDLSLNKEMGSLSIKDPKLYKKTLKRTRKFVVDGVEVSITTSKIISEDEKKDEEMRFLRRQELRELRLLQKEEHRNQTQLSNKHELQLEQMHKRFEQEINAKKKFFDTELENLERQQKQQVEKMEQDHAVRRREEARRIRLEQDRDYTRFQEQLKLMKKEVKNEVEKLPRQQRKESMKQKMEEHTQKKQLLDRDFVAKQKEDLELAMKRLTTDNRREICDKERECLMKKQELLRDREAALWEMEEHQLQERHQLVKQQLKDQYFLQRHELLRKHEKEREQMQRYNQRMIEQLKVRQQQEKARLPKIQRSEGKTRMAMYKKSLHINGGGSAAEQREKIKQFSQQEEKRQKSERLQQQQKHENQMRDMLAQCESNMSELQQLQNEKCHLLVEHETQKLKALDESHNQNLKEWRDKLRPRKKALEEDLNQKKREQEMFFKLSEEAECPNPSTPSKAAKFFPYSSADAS
T2 sequence (P04049 whole entry): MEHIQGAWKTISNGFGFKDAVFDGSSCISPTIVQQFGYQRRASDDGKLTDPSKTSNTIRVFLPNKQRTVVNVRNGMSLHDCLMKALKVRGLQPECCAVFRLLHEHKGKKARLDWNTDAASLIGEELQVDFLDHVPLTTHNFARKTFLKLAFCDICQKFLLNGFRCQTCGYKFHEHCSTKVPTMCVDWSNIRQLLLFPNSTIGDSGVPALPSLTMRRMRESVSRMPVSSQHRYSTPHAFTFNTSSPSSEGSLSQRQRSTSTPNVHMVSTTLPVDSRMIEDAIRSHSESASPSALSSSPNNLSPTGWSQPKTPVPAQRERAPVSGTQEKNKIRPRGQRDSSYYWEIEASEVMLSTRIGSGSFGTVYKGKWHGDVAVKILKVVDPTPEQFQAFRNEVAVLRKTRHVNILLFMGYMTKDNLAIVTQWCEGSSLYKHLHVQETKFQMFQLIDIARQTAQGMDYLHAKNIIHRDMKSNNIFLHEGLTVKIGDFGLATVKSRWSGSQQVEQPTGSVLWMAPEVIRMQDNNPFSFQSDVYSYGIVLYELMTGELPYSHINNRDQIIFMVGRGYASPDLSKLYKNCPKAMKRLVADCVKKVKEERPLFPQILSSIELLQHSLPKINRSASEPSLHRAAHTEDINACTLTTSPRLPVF
T1 sequence (P19784 whole entry): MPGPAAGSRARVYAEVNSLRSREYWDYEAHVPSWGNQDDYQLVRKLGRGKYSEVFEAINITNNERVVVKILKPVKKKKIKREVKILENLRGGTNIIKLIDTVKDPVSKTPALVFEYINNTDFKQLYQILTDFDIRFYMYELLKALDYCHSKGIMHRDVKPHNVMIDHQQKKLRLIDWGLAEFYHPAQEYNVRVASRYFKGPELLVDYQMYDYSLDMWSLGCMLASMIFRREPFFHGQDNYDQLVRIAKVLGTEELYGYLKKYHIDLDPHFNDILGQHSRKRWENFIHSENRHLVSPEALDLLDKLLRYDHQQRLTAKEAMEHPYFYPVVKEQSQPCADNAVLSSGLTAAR

Take `Cn1ncc(Cl)c1-c1cc(C(=O)N[C@H](CN)Cc2cccc(F)c2)sc1Cl` [GSK2110183]: the inhibition at 0.5 µM was 2% in experiment [1]; -2% in experiment [2]; 12% in experiment [3]; -8% in experiment [4]; -9% in experiment [5]; 51% in experiment [6]. Moreover, the inhibition at 10 µM in experiment [1] is 4%; in experiment [2], 11%; in experiment [3] it was 71%; in experiment [4], 24%; in experiment [5], 5%; in experiment [6], 95%.

On to `Cn1ncc(Cl)c1-c1cc(C(=O)N[C@H](CN)Cc2ccc(F)c(F)c2)oc1Cl` [GSK2141795], for which the inhibition at 0.5 µM in experiment [1] (0.5 µM, read-out: % Inhibition) was 1%; in experiment [2] (0.5 µM, read-out: % Inhibition) it was -4%; in experiment [3] (0.5 µM, read-out: % Inhibition) it was 6%; in experiment [4] (0.5 µM, read-out: % Inhibition), -12%; in experiment [5] (0.5 µM, read-out: % Inhibition), -14%; in experiment [6] (0.5 µM, read-out: % Inhibition), 67%. Further, the inhibition at 10 µM in experiment [1] (10 µM, read-out: % Inhibition) is -5%; in experiment [2] (10 µM, read-out: % Inhibition) it was 13%; in experiment [3] (10 µM, read-out: % Inhibition), 81%; in experiment [4] (10 µM, read-out: % Inhibition), 22%; in experiment [5] (10 µM, read-out: % Inhibition), 11%; in experiment [6] (10 µM, read-out: % Inhibition) it was 97%.

The values are drawn from PMC4076210, “Discovery of Novel AKT Inhibitors with Enhanced Anti-Tumor Effects in Combination with the MEK Inhibitor” (PLoS ONE, 2014).
